Test results taken from patent publication US7459532B2, “Variants of the TRP channel family member, LTRPC3G” (Bristol-Myers Squibb Company, priority 2003, dated 2008).
Entries after “also recorded” stand apart in the source; their conditions may differ.

Assays:
HEK 293 cells = test: Ca^2+ store depletion in LTRPC3-HA- and vector-transfected HEK 293 cells; type: cell-based
Protocol: (§1) […] (A), or 50 μM carbachol (B) was first added to LTRPC3 variant expressing HEK 293 cells in the absence of external Ca^2+. After 9 minutes, 2 mM Ca^2+ solution was added to the cell medium at the indicated times. Currents for vector transfected HEK 293 cells, and LTRPC3 variant expressing HEK 293 cells are labeled accordingly. […] Cells loaded with Fluo-4 were incubated in 1 mM Ca^2+ solution and treated with 100 μM of La^3+ (“w/La^3+”), Gd^3+ (“w/Gd^3+”) or without blockers (“w/o blocker”) for 10 min prior to the addition of 10 mM Ca^2+ to the cell medium as indicated. Curves represent averages of three independent experiments, each involving at least 8 wells per condition. Physiometric methods were performed as described in Example 7 herein.
The store-operated mechanism of LTRPC3-mediated Ca^2+ influx was tested further by passively depleting Ca^2+ stores with thapsigargin (TG), an inhibitor of microsomal Ca^2+ ATPases that pumps ions from the cytosol back into the stores. […] Following store depletion with TG, addition of Ca^2+ to the buffer induced a much larger Ca^2+ entry in LTRPC3 cells compared to the vector control cells.
Receptor-mediated Ca^2+ entry was also more pronounced in LTRPC3-HA-transfected cells. Carbachol (CCh) can activate an endogenous muscarinic receptor and trigger IP3 production, leading to store-depletion in HEK 293 cells. […]

LTRPC3 = target: T1, LTRPC3 (Homo sapiens, UniProt Q9HCF6, R1695Q); test: FLIPR Fluo-4 Ca^2+ entry in LTRPC3-transfected HEK 293 cells; type: cell-based; details: for block of LTRPC3 Ca^2+ conductance/currents (in words): 1 mM Ca^2+ solution, addition of 10 mM Ca^2+; for block of LTRPC3 Ca^2+ currents: pre-treatment with 100 μM, stimulated by adding 10 mM Ca^2+
T1 construct: the complete open reading frame of LTRPC3 with a C-terminal HA tag was transiently transfected into HEK 293 cells; expressed in transfected cells; host or cells: HEK 293 (transient transfection, vector pcDNA3.1/Hygro-LTRPC3-HA)
Protocol: as §1
(§2) Panels A, C and E show results obtained for vector-transfected cells, while Panels B, D and F show results obtained for TRPM3-transfected cells. […] Cells loaded with Fluo-4 were incubated in 1 mM Ca^2+ solution and treated with 100 μM of Gd^3+ (red) or without blockers (black) for 10 min prior to the addition of 10 mM Ca^2+ to the bath solution as indicated. […] Cells loaded with Fluo-4 were incubated in a nominally Ca^2+-free media and treated without blockers (black) or with 100 μM of Gd^3+ (red) for 10 min prior to the addition of 2 μM TG (Panels C and D, first arrow) or 50 μM CCh (Panels E and F, first arrow), Ca^2+ entry was stimulated by the bath addition of 10 mM Ca^2+ (second arrow). Representative traces from one of three independent experiments are shown; each trace is the mean of 12 wells per condition. Physiometric methods were performed as described in Example 10 herein.
Moreover, physiometric studies have shown that LTRPC3 is a functional Ca^2+ permeable channel (see FIGS. 18 and 19, and Example 7). LTRPC3g function was assessed using a Fluorometric Imaging Plate Reader (FLIPR™) that measures real-time intracellular fluorescence changes. Cells transiently transfected with vector or LTRPC3-HA were loaded with the cytoplasmic Ca^2+ indicator Fluoro-4 in a 1 mM Ca^2+ solution. […] The non-transfected cells were indistinguishable from the vector-transfected cells (data not shown). Therefore, LTRPC3 is a constitutively active channel capable of mediating Ca^2+ influx.
The lanthanides, gadolinium (Gd^3+) and lanthanum (La^3+), are noneselective Ca^2+-permeable channel blockers, often used as part of the characterization of overexpressed TRP channels. […] In the presence of 1 mM Ca^2+ in which endogenous SOCs is minimally activated (FIG. 18A), pre-treatment with 100 μM of La^3+ and Gd^3+ blocked LTRPC3 Ca^2+ currents, stimulated by adding 10 mM Ca^2+, by 67 and 39%, respectively.
Additional experiments were performed to further confirm the Ca^2+ store-depleted activation of LTRPC3 using Gd^3+. The effects of 100 μM Gd^3+ on Ca^2+ permeability were tested in vector- and LTRPC3-transfected cells. […] In contrast, 100 μM Gd^3+ inhibited Ca^2+ entry, induced by adding 10 mM Ca^2+, by 53% in LTRPC3-transfected cells (see FIG. 22B). Gd^3+ reduced fluorescence units in vector-transfected cells from 1470±140 to −58±8 and in LTRPC3-transfected cells from 6000±322 to 2080±199 (n=12). Fluorescence values were measured 150 seconds after adding 10 mM Ca^2+ and percent blockade was calculated as 1 minus FLTRPC3-FVector in the presence of Gd^3+ divided by FLTRPC3-FVector without blocker. The effects of Gd^3+ on LTRPC3-mediated Ca^2+ entry, induced by 10 mM Ca^2+, in the presence of thapsigargin or carbachol was also examined. Cells were incubated in nominally Ca^2+-free medium for thapsigargin and carbachol experiments. Gd^3+ inhibited Ca^2+ entry by 51% after depletion of intracellular stores with thapsigargin (see FIG. 22B). Gd^3+ reduced peak fluorescence after 10 mM Ca^2+ addition in vector-transfected cells from 26444±2410 to 1316±60 and in LTRPC3-transfected cells from 37676±2425 to 6783±250 (see FIGS. 22C and D, respectively; n=12). […]

[1] = tested on: endogenous Ca^2+ entry pathways present in HEK 293 cells; test: FLIPR Fluo-4 Ca^2+ entry in vector-transfected HEK 293 cells; type: cell-based; details: 100 μM
Protocol: as §2
To further address the mechanism of LTRPC3-mediated Ca^2+ entry, similar Ca^2+ addition experiments were performed on transfected cells incubated (˜30 min) in a nominally Ca^2+-free solution. Previous studies have shown that lowering extracellular Ca^2+ concentration below physiological levels can deplete intracellular Ca^2+ stores in many cell types including HEK 293 (EMBO J. 17, 4274-4282, (1998)). Incubating vector-transfected HEK 293 cells in a nominally Ca^2+-free solution gave rise to Ca^2+ entry that was dependent on the concentration of Ca^2+ added to the buffers, indicating Ca^2+ influx was mediated through endogenous SOCs in HEK293 cells (FIG. 18, left panels). In LTRPC3 cells, the Ca^2+ transients triggered by similar Ca^2+ treatment were much larger (FIG. 18, right panels).
Additional experiments were performed to further confirm the Ca^2+ store-depleted activation of LTRPC3 using Gd^3+. The effects of 100 μM Gd^3+ on Ca^2+ permeability were tested in vector- and LTRPC3-transfected cells. […] In contrast, 100 μM Gd^3+ inhibited Ca^2+ entry, induced by adding 10 mM Ca^2+, by 53% in LTRPC3-transfected cells (see FIG. 22B). Gd^3+ reduced fluorescence units in vector-transfected cells from 1470±140 to −58±8 and in LTRPC3-transfected cells from 6000±322 to 2080±199 (n=12). Fluorescence values were measured 150 seconds after adding 10 mM Ca^2+ and percent blockade was calculated as 1 minus FLTRPC3-FVector in the presence of Gd^3+ divided by FLTRPC3-FVector without blocker. […] Gd^3+ reduced peak fluorescence after 10 mM Ca^2+ addition in vector-transfected cells from 26444±2410 to 1316±60 and in LTRPC3-transfected cells from 37676±2425 to 6783±250 (see FIGS. 22C and D, respectively; n=12). […] Gd^3+ reduced peak Ca^2+ fluorescence in vector-transfected cells from 9327±466 to 453±15 and in LTRPC3-transfected cells from 14747±988 to 1975±79 (see FIGS. 22E and F, respectively; n=12).

female recipients = details: picogram quantities to the female vomeronasal organ; cited from earlier work
[2] = tested on: nigral dopaminergic neurons; details: gel foam implants in the striatum; cited from earlier work
Human lung fibroblasts = test: human lung fibroblast growth assay with Alamar Blue; type: cell-based; details: 3 days in basal medium
Protocol: Human lung fibroblasts are obtained from Clonetics (San Diego, Calif.) and maintained in growth media from Clonetics. Dermal microvascular endothelial cells are obtained from Cell Applications (San Diego, Calif.). For proliferation assays, the human lung fibroblasts and dermal microvascular endothelial cells can be cultured at 5,000 cells/well in a 96-well plate for one day in growth medium. The cells are then incubated for one day in 0.1% BSA basal medium. After replacing the medium with fresh 0.1% BSA medium, the cells are incubated with the test proteins for 3 days. Alamar Blue (Alamar Biosciences, Sacramento, Calif.) is added to each well to a final concentration of 10%. The cells are incubated for 4 hr. Cell viability is measured by reading in a CytoFluor fluorescence reader. For the PGE2 assays, the human lung fibroblasts are cultured at 5,000 cells/well in a 96-well plate for one day. […]

[3] = 100 μM, nominally Ca^2+-free medium, 10 mM Ca^2+ addition

T1 sequence (Q9HCF6 with tags, fused parts or gaps isoform Q9HCF6-2 R1670Q): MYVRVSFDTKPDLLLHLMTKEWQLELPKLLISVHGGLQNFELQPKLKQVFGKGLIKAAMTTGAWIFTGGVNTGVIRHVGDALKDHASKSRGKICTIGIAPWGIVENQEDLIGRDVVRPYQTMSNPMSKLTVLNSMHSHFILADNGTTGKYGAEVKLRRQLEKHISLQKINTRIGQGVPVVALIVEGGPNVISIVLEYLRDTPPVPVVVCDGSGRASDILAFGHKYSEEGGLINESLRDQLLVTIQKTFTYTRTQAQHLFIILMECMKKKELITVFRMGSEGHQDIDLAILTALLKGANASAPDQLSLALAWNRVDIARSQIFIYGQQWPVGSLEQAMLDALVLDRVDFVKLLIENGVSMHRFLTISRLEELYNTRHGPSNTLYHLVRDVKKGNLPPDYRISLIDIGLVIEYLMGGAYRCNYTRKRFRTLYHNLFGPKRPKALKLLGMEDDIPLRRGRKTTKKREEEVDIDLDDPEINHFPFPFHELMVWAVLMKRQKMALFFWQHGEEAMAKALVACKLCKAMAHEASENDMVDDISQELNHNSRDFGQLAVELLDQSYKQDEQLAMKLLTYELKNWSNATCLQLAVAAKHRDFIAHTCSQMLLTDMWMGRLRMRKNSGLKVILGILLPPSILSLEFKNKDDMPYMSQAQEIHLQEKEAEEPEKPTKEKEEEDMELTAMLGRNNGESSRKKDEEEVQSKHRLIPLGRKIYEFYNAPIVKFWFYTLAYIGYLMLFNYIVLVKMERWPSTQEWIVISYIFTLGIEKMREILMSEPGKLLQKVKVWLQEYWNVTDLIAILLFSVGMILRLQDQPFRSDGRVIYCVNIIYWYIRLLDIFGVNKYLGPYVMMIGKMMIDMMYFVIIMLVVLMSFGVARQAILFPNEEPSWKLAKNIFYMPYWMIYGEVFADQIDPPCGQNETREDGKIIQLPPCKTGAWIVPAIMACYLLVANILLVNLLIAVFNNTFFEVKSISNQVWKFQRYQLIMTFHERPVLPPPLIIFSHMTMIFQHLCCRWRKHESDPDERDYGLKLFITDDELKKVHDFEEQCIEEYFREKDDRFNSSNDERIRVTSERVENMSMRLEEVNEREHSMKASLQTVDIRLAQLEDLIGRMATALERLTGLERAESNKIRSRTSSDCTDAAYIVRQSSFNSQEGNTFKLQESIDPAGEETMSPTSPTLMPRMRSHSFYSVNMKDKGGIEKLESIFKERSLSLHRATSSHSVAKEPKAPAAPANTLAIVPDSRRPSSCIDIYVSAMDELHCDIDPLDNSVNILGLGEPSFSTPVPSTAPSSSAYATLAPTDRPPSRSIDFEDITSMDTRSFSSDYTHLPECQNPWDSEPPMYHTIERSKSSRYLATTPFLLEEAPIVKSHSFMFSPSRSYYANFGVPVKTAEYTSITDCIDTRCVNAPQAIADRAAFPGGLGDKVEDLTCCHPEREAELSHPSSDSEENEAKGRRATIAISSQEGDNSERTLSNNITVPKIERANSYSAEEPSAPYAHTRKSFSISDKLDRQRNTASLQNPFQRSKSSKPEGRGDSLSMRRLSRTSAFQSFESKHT

C[N+](C)(C)CCOC(N)=O [CCh, Carbachol]
intracellular Ca^2+ response (in words) (HEK 293 cells; 50 μM, LTRPC3- and vector-transfected cells): transient and rapid intracellular Ca^2+ increase

[Gd+3] [Gd^3+, gadolinium (Gd^3+)]
block of LTRPC3 Ca^2+ conductance/currents (in words) (LTRPC3; 100 μM for 10 min): partially inhibited
effect on Tg and CCh induced LTRPC3 variant-mediated Ca^2+ entry (in words) (LTRPC3; 100 μM for 10 min, nominally Ca^2+-free media, 2 μM TG or 50 μM CCh, 10 mM Ca^2+): can be inhibited
fluorescence in the presence of blocker, LTRPC3-transfected cells (LTRPC3; 100 μM, 1 mM Ca^2+, 150 seconds after adding 10 mM Ca^2+, n=12): 2080±199 fluorescence units
inhibition of Ca^2+ entry (percent blockade) (LTRPC3; 100 μM, cells in 1 mM Ca^2+, induced by adding 10 mM Ca^2+, 150 seconds after addition): 53%
inhibition of Ca^2+ entry after depletion of intracellular stores with carbachol (LTRPC3; [3]): 72%
inhibition of Ca^2+ entry after depletion of intracellular stores with thapsigargin (LTRPC3; [3]): 51%
peak Ca^2+ fluorescence in the presence of blocker after carbachol, LTRPC3-transfected cells (LTRPC3; 100 μM, nominally Ca^2+-free medium, 10 mM Ca^2+ addition, n=12): 1975±79
peak fluorescence in the presence of blocker after thapsigargin, LTRPC3-transfected cells (LTRPC3; 100 μM, nominally Ca^2+-free medium, after 10 mM Ca^2+ addition, n=12): 6783±250
block of LTRPC3 Ca^2+ currents (LTRPC3; 1 mM Ca^2+): 39%
fluorescence in the presence of blocker, vector-transfected cells ([1]; 1 mM Ca^2+, 150 seconds after adding 10 mM Ca^2+, n=12): −58±8 fluorescence units
effect on minimal Ca^2+ influx in vector-transfected cells (in words) ([1]; 1 mM Ca^2+, addition of 10 mM Ca^2+): strongly inhibited
peak Ca^2+ fluorescence in the presence of blocker after carbachol, vector-transfected cells ([1]; nominally Ca^2+-free medium, 10 mM Ca^2+ addition, n=12): 453±15
peak fluorescence in the presence of blocker after thapsigargin, vector-transfected cells ([1]; nominally Ca^2+-free medium, after 10 mM Ca^2+ addition, n=12): 1316±60

[La+3] [La^3+, lanthanum (La^3+)]
block of LTRPC3 Ca^2+ conductance/currents (in words) (LTRPC3; 100 μM for 10 min): inhibited; also recorded: more potent
block of LTRPC3 Ca^2+ currents (LTRPC3; 1 mM Ca^2+): 67%

C[C@@]12C=CC[C@H]1[C@@H]1CCC3=CC(=O)CC[C@]3(C)[C@H]1CC2 [androstadienone]
nervousness, tension and other negative feelings (female recipients): significant reduction

C/C=C(/C)C(=O)O[C@H]1C(C)=C2[C@H]([C@@H]1OC(=O)CCCCCCC)[C@@](C)(OC(C)=O)C[C@H](OC(=O)CCC)[C@@]1(O)[C@H]2OC(=O)[C@@]1(C)O [thapsigargin]
depletion of Ca^2+ stores (in words) (HEK 293 cells; 2 μM, LTRPC3-HA- and vector-transfected cells): equivalently depleted Ca^2+ stores

FGF-2: FGF-2 (basic FGF), growth factor used as comparator
protection of nigral dopaminergic neurons from the toxicity associated with MPTP exposure [2]: near complete protection
concentration at which stimulation of fibroblast growth should be shown (Human lung fibroblasts): 10 to 2500 ng/mL
